Results as given in PubChem BioAssay (NCI).
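48-hour exposure; five concentrations; linearly interpolated endpoints. Here, GI50 denotes the concentration required for 50% inhibition of growth. Definition used: TGI = concentration required for complete inhibition of growth.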

Tests used:
Assay in all cases: NCI anticancer screen, dose series, 48 h
HOP-62 NSCLC = system: HOP-62 NSCLC
MDA-MB-231 breast = system: MDA-MB-231 breast
BT-549 breast = system: BT-549 breast
RPMI-8226 leukemia = system: RPMI-8226 leukemia
UACC-62 melanoma = system: UACC-62 melanoma
U251 CNS = system: U251 CNS
UACC-257 melanoma = system: UACC-257 melanoma
K-562 leukemia = system: K-562 leukemia
EKVX NSCLC = system: EKVX NSCLC
SNB-19 CNS = system: SNB-19 CNS
TK-10 renal = system: TK-10 renal
HCC-2998 colon = system: HCC-2998 colon
UO-31 renal = system: UO-31 renal
SF-295 CNS = system: SF-295 CNS
MALME-3M melanoma = system: MALME-3M melanoma
SF-539 CNS = system: SF-539 CNS
HCT-15 colon = system: HCT-15 colon
SF-268 CNS = system: SF-268 CNS
SK-MEL-2 melanoma = system: SK-MEL-2 melanoma
A498 renal = system: A498 renal
OVCAR-5 ovarian = system: OVCAR-5 ovarian
M14 melanoma = system: M14 melanoma
KM12 colon = system: KM12 colon
MOLT-4 leukemia = system: MOLT-4 leukemia
OVCAR-8 ovarian = system: OVCAR-8 ovarian
SNB-75 CNS = system: SNB-75 CNS
HL-60(TB) leukemia = system: HL-60(TB) leukemia
MDA-MB-435 = system: MDA-MB-435
786-0 renal = system: 786-0 renal
SK-OV-3 ovarian = system: SK-OV-3 ovarian
LOX IMVI melanoma = system: LOX IMVI melanoma
RXF 393 renal = system: RXF 393 renal
NCI-H522 lung = system: NCI-H522 lung
SR leukemia = system: SR leukemia
OVCAR-3 ovarian = system: OVCAR-3 ovarian
MCF7 breast = system: MCF7 breast
SK-MEL-28 melanoma = system: SK-MEL-28 melanoma
COLO 205 colon = system: COLO 205 colon
SN12C renal = system: SN12C renal
HOP-92 NSCLC = system: HOP-92 NSCLC
SK-MEL-5 melanoma = system: SK-MEL-5 melanoma
NCI-H23 lung = system: NCI-H23 lung
HT29 colon = system: HT29 colon
ACHN renal = system: ACHN renal
CCRF-CEM leukemia = system: CCRF-CEM leukemia
T-47D breast = system: T-47D breast
NCI-H226 lung = system: NCI-H226 lung
HS 578T breast = system: HS 578T breast
MDA-MB-468 breast = system: MDA-MB-468 breast
NCI-H460 lung = system: NCI-H460 lung
IGROV1 ovarian = system: IGROV1 ovarian
DU-145 prostate = system: DU-145 prostate
HCT-116 colon = system: HCT-116 colon
OVCAR-4 ovarian = system: OVCAR-4 ovarian
A549 NSCLC = system: A549 NSCLC
CAKI-1 renal = system: CAKI-1 renal
PC-3 prostate = system: PC-3 prostate
SW-620 colon = system: SW-620 colon

## CN1CCN(c2ccc(C(=O)/C=C/c3cc(Br)ccc3F)cc2)CC1
HOP-62 NSCLC
  GI50: 16.2 µM
  TGI: 31.5 µM
MDA-MB-231 breast
  GI50: 13.2 µM
  TGI: 30 µM
BT-549 breast
  GI50: 3.58 µM
  TGI: 12.2 µM
RPMI-8226 leukemia
  GI50: 1.84 µM
  TGI: 6.07 µM
UACC-62 melanoma
  GI50: 15.1 µM
  TGI: 29.9 µM
U251 CNS
  GI50: 5.91 µM
  TGI: 18.9 µM
UACC-257 melanoma
  GI50: 15.5 µM
  TGI: 29.5 µM
K-562 leukemia
  GI50: 2.28 µM
  TGI: 11.8 µM
EKVX NSCLC
  GI50: 13.3 µM
  TGI: 26.4 µM
SNB-19 CNS
  GI50: 15.1 µM
  TGI: 29.5 µM
TK-10 renal
  GI50: 15 µM
  TGI: 28.3 µM
HCC-2998 colon
  GI50: 2.76 µM
  TGI: 7.91 µM
UO-31 renal
  GI50: 8.55 µM
  TGI: 21.5 µM
SF-295 CNS
  GI50: 15.2 µM
  TGI: 28.7 µM
MALME-3M melanoma
  GI50: 15.3 µM
  TGI: 29.4 µM
SF-539 CNS
  GI50: 7.05 µM
  TGI: 21.7 µM
HCT-15 colon
  GI50: 3.43 µM
  TGI: 14.7 µM
SF-268 CNS
  GI50: 15.1 µM
  TGI: 31.6 µM
SK-MEL-2 melanoma
  GI50: 14.5 µM
  TGI: 27.6 µM
A498 renal
  GI50: 17 µM
  TGI: 31.7 µM
OVCAR-5 ovarian
  GI50: 18.6 µM
  TGI: 35.9 µM
M14 melanoma
  GI50: 6.38 µM
  TGI: 19.7 µM
KM12 colon
  GI50: 2.69 µM
  TGI: 9.23 µM
MOLT-4 leukemia
  GI50: 3.69 µM
  TGI: 16.8 µM
OVCAR-8 ovarian
  GI50: 13.2 µM
  TGI: 26 µM
SNB-75 CNS
  GI50: 3.25 µM
  TGI: 16.6 µM
HL-60(TB) leukemia
  GI50: 2.77 µM
  TGI: 14.5 µM
MDA-MB-435
  GI50: 3.78 µM
  TGI: 13.5 µM
786-0 renal
  GI50: 10 µM
  TGI: 22.4 µM
SK-OV-3 ovarian
  GI50: 14.7 µM
  TGI: 28.6 µM
LOX IMVI melanoma
  GI50: 3.2 µM
  TGI: 12.5 µM
RXF 393 renal
  GI50: 1.27 µM
  TGI: 13.7 µM
NCI-H522 lung
  GI50: 13.5 µM
  TGI: 27.1 µM
SR leukemia
  GI50: 2.58 µM
  TGI: 10.7 µM
OVCAR-3 ovarian
  GI50: 5.81 µM
  TGI: 18.2 µM
MCF7 breast
  GI50: 2.67 µM
  TGI: 11.5 µM
SK-MEL-28 melanoma
  GI50: 19.7 µM
  TGI: 36.2 µM
COLO 205 colon
  GI50: 11.8 µM
  TGI: 30.1 µM
SN12C renal
  GI50: 11.2 µM
  TGI: 27.2 µM
HOP-92 NSCLC
  GI50: 6.71 µM
  TGI: 21.9 µM
SK-MEL-5 melanoma
  GI50: 12.9 µM
  TGI: 25.7 µM
NCI-H23 lung
  GI50: 13.5 µM
  TGI: 27.3 µM
HT29 colon
  GI50: 2.87 µM
  TGI: 10.9 µM
ACHN renal
  GI50: 13.4 µM
  TGI: 29.5 µM
CCRF-CEM leukemia
  GI50: 3.44 µM
  TGI: 15.6 µM
T-47D breast
  GI50: 15 µM
  TGI: 47.3 µM
NCI-H226 lung
  GI50: 12.7 µM
  TGI: 27.3 µM
HS 578T breast
  GI50: 13.3 µM
  TGI: 38.8 µM
MDA-MB-468 breast
  GI50: 2.51 µM
  TGI: 9.77 µM
NCI-H460 lung
  GI50: 15.6 µM
  TGI: 31.1 µM
IGROV1 ovarian
  GI50: 12.8 µM
  TGI: 26.6 µM
DU-145 prostate
  GI50: 11.1 µM
  TGI: 23 µM
HCT-116 colon
  GI50: 1.79 µM
  TGI: 3.93 µM
OVCAR-4 ovarian
  GI50: 11.3 µM
  TGI: 23.9 µM
A549 NSCLC
  GI50: 4.38 µM
  TGI: 16.5 µM
CAKI-1 renal
  GI50: 12.1 µM
  TGI: 24.6 µM
PC-3 prostate
  GI50: 6.24 µM
  TGI: 21.3 µM
SW-620 colon
  GI50: 3.52 µM
  TGI: 14.2 µM

## Cc1ccc(C(=O)CSc2nc3ccc(F)cc3c(=O)n2-c2ccc(Cl)cc2)cc1
HOP-62 NSCLC
  GI50: 3.95 µM
  TGI: 50.4 µM
MDA-MB-231 breast
  GI50: 15.1 µM
  TGI: > 100 µM
BT-549 breast
  GI50: 11.2 µM
  TGI: > 100 µM
RPMI-8226 leukemia
  GI50: > 100 µM
  TGI: > 100 µM
UACC-62 melanoma
  GI50: > 100 µM
  TGI: > 100 µM
U251 CNS
  GI50: 10.8 µM
  TGI: > 100 µM
UACC-257 melanoma
  GI50: > 100 µM
  TGI: > 100 µM
K-562 leukemia
  GI50: > 100 µM
  TGI: > 100 µM
EKVX NSCLC
  GI50: > 100 µM
  TGI: > 100 µM
SNB-19 CNS
  GI50: 4.93 µM
  TGI: 73.8 µM
TK-10 renal
  GI50: 98.1 µM
  TGI: > 100 µM
HCC-2998 colon
  GI50: > 100 µM
  TGI: > 100 µM
UO-31 renal
  GI50: 37 µM
  TGI: > 100 µM
SF-295 CNS
  GI50: 3.51 µM
  TGI: 21.4 µM
MALME-3M melanoma
  GI50: 66.7 µM
  TGI: > 100 µM
SF-539 CNS
  GI50: 5.08 µM
  TGI: 47.4 µM
HCT-15 colon
  GI50: > 100 µM
  TGI: > 100 µM
SF-268 CNS
  GI50: 25.3 µM
  TGI: > 100 µM
SK-MEL-2 melanoma
  GI50: > 100 µM
  TGI: > 100 µM
A498 renal
  GI50: > 100 µM
  TGI: > 100 µM
OVCAR-5 ovarian
  GI50: > 100 µM
  TGI: > 100 µM
M14 melanoma
  GI50: > 100 µM
  TGI: > 100 µM
KM12 colon
  GI50: > 100 µM
  TGI: > 100 µM
MOLT-4 leukemia
  GI50: > 100 µM
  TGI: > 100 µM
OVCAR-8 ovarian
  GI50: 7.89 µM
  TGI: > 100 µM
HL-60(TB) leukemia
  GI50: > 100 µM
  TGI: > 100 µM
MDA-MB-435
  GI50: > 100 µM
  TGI: > 100 µM
786-0 renal
  GI50: 11.1 µM
  TGI: > 100 µM
SK-OV-3 ovarian
  GI50: 39.1 µM
  TGI: > 100 µM
LOX IMVI melanoma
  GI50: 4.04 µM
  TGI: > 100 µM
RXF 393 renal
  GI50: 4.89 µM
  TGI: 32.6 µM
NCI-H522 lung
  GI50: > 100 µM
  TGI: > 100 µM
SR leukemia
  GI50: > 100 µM
  TGI: > 100 µM
OVCAR-3 ovarian
  GI50: > 100 µM
  TGI: > 100 µM
MCF7 breast
  GI50: > 100 µM
  TGI: > 100 µM
SK-MEL-28 melanoma
  GI50: > 100 µM
  TGI: > 100 µM
COLO 205 colon
  GI50: > 100 µM
  TGI: > 100 µM
SN12C renal
  GI50: > 100 µM
  TGI: > 100 µM
HOP-92 NSCLC
  GI50: 5 µM
  TGI: 57.5 µM
SK-MEL-5 melanoma
  GI50: > 100 µM
  TGI: > 100 µM
NCI-H23 lung
  GI50: > 100 µM
  TGI: > 100 µM
HT29 colon
  GI50: > 100 µM
  TGI: > 100 µM
ACHN renal
  GI50: 6.83 µM
  TGI: > 100 µM
CCRF-CEM leukemia
  GI50: > 100 µM
  TGI: > 100 µM
T-47D breast
  GI50: > 100 µM
  TGI: > 100 µM
NCI-H226 lung
  GI50: 3.13 µM
  TGI: 24.9 µM
HS 578T breast
  GI50: 3.41 µM
  TGI: 86.2 µM
MDA-MB-468 breast
  GI50: 82.9 µM
  TGI: > 100 µM
NCI-H460 lung
  GI50: 10.3 µM
  TGI: > 100 µM
IGROV1 ovarian
  GI50: 27.1 µM
  TGI: > 100 µM
DU-145 prostate
  GI50: 59.5 µM
  TGI: > 100 µM
HCT-116 colon
  GI50: > 100 µM
  TGI: > 100 µM
OVCAR-4 ovarian
  GI50: 9.45 µM
  TGI: > 100 µM
A549 NSCLC
  GI50: > 100 µM
  TGI: > 100 µM
CAKI-1 renal
  GI50: 4.49 µM
  TGI: 44.5 µM
PC-3 prostate
  GI50: > 100 µM
  TGI: > 100 µM
SW-620 colon
  GI50: > 100 µM
  TGI: > 100 µM
